{
  "source": "patent US10842805B2",
  "about": "“Compositions containing enriched natural crocin and/or crocetin, and their therapeutic or nutraceutical uses” (priority 2012, dated 2020)",
  "origin": "cited, not measured here",
  "tested_on": "ethanol-induced inhibition of hippocampal long-term potentiation",
  "conditions": "mouse, in vivo",
  "data": [
    {"molecule": "CC(/C=C/C=C(\\C)C(=O)O)=C\\C=C\\C=C(C)\\C=C\\C=C(/C)C(=O)O", "note": "[crocetin]", "values": [
      {"measurement": "constituent to which the beneficial effect of saffron extract is attributed", "result": "not crocetin"}
    ]},
    {"molecule": "CC(/C=C/C=C(\\C)C(=O)O[C@@H]1O[C@H](CO[C@@H]2O[C@H](CO)[C@@H](O)[C@H](O)[C@H]2O)[C@@H](O)[C@H](O)[C@H]1O)=C\\C=C\\C=C(C)\\C=C\\C=C(/C)C(=O)O[C@@H]1O[C@H](CO[C@@H]2O[C@H](CO)[C@@H](O)[C@H](O)[C@H]2O)[C@@H](O)[C@H](O)[C@H]1O", "note": "[crocin, Crocetin-di-beta-D-gentiobiosyl ester]", "values": [
      {"measurement": "constituent to which the beneficial effect of saffron extract is attributed", "result": "attributed to crocin"}
    ]}
  ]
}
